Results taken from the supplement of paper PMC10307832.

Columns and labels:
Test in all cases: relative viability (nuclei count vs DMSO), 5 days (fraction); higher = more cells survive
Ponatinib + Foretinib = compound: Cc1ccc(C(=O)Nc2ccc(CN3CCN(C)CC3)c(C(F)(F)F)c2)cc1C#Cc1cnc2cccnn12 [Ponatinib] + COc1cc2c(Oc3ccc(NC(=O)C4(C(=O)Nc5ccc(F)cc5)CC4)cc3F)ccnc2cc1OCCCN1CCOCC1 [Foretinib] (partner 0.25 µM)
Method in brief: (§1)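 Lung cancer cell lines in 1536-well plates got either a single drug or a fixed anchor-drug dose together with five library-drug doses (not always all listed) in √10 steps, by pin tool, on the day after seeding. Nuclei were counted after 5 days, and relative viability is the treated-to-vehicle ratio of nuclei counts. Values are medians of duplicate plates.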

Pazopanib + OSI-027 = compound: Cc1ccc(Nc2nccc(N(C)c3ccc4c(C)n(C)nc4c3)n2)cc1S(N)(=O)=O [Pazopanib] + COc1cccc2cc(-c3nc([C@H]4CC[C@H](C(=O)O)CC4)n4ncnc(N)c34)[nH]c12 [OSI-027] (partner 0.5 µM)
Method in brief: as §1

Pazopanib + Lapatinib = compound: Cc1ccc(Nc2nccc(N(C)c3ccc4c(C)n(C)nc4c3)n2)cc1S(N)(=O)=O [Pazopanib] + CS(=O)(=O)CCNCc1ccc(-c2ccc3ncnc(Nc4ccc(OCc5cccc(F)c5)c(Cl)c4)c3c2)o1 [Lapatinib] (partner 2 µM)
Method in brief: as §1

Pazopanib + Pemetrexed = compound: Cc1ccc(Nc2nccc(N(C)c3ccc4c(C)n(C)nc4c3)n2)cc1S(N)(=O)=O [Pazopanib] + Nc1nc2[nH]cc(CCc3ccc(C(=O)N[C@@H](CCC(=O)O)C(=O)O)cc3)c2c(=O)[nH]1 [Pemetrexed] (partner 0.2 µM)
Method in brief: as §1

Cell Line	relative viability (Ponatinib + Foretinib; first compound 0.002 µM)	relative viability (Ponatinib + Foretinib; first compound 0.006325 µM)	relative viability (Ponatinib + Foretinib; first compound 0.06325 µM)	relative viability (Ponatinib + Foretinib; first compound 0.2 µM)	relative viability (Pazopanib + OSI-027; first compound 0.01 µM)	relative viability (Pazopanib + OSI-027; first compound 0.03162 µM)	relative viability (Pazopanib + OSI-027; first compound 0.1 µM)	relative viability (Pazopanib + OSI-027; first compound 0.3162 µM)	relative viability (Pazopanib + OSI-027; first compound 1 µM)	relative viability (Pazopanib + Lapatinib; first compound 0.01 µM)	relative viability (Pazopanib + Lapatinib; first compound 0.03162 µM)	relative viability (Pazopanib + Lapatinib; first compound 0.1 µM)	relative viability (Pazopanib + Lapatinib; first compound 0.3162 µM)	relative viability (Pazopanib + Lapatinib; first compound 1 µM)	relative viability (Pazopanib + Pemetrexed; first compound 0.01 µM)	relative viability (Pazopanib + Pemetrexed; first compound 0.03162 µM)	relative viability (Pazopanib + Pemetrexed; first compound 0.1 µM)	relative viability (Pazopanib + Pemetrexed; first compound 0.3162 µM)	relative viability (Pazopanib + Pemetrexed; first compound 1 µM)
HCC-15	0.974	0.928	1.13	1.01	0.622	0.825	0.7	0.669	0.815	0.841	0.789	0.907	0.89	1	0.215	0.226	0.223	0.209	0.231
HCC-44					0.405	0.572	0.584	0.68	0.677	0.999	1.01	0.962	1.01	1.03	0.697	0.637	0.605	0.62	0.616
HCC-78	0.521	0.578	0.598	0.534	0.361	0.423	0.348	0.411	0.371	0.361	0.658	0.458	0.622	0.924		0.934	0.899	0.839	0.927
HCC-366	0.887	0.939	0.955	0.956	0.807	0.992	0.823	0.975	0.945	1.09	1.03	1.09	1.15	1.03	0.298	0.141	0.16	0.159	0.131
HCC-827	0.971	1.02	0.997	1	0.775	0.752	0.784	0.801	0.731	0.169	0.177	0.122	0.181	0.191	0.272	0.211	0.259	0.273	0.247
HOP-62	0.999	1	1	0.914	0.787	0.869	0.871	0.879	0.727	1.04	1.01		0.99	1.04	0.366	0.36	0.339	0.3	0.224
IA-LM	1.06	1.1	1.01	1.06						0.703		0.944	0.809	0.52					
LC-2-ad	0.915	0.859	0.966	0.842	0.865	1	0.84	0.808	0.99	1.01	0.954	0.999	0.979	1.12	0.292	0.281	0.274	0.311	0.275
LCLC-103H	0.745	0.755	0.775	0.688	0.495	0.454	0.547	0.482	0.485						0.447	0.477	0.399	0.494	0.491
NCI-H441	1.14	0.836	1.01	0.986	0.6	0.597	0.649	0.619	0.454						0.236	0.274	0.272	0.224	0.253
NCI-H522					0.705	0.662	0.705	0.636	0.775						0.842	0.83	0.956	1.09	1.02
NCI-H727	0.781	0.839	0.64	0.869	0.462	0.561	0.545	0.505	0.574	0.79	0.988	0.801	0.878	0.891					
NCI-H1299	1.07	1.09	1.15	1.07						0.928	0.962	0.969	1.02	0.894					
NCI-H1623	0.899	0.832	0.889	0.833	0.415	0.401	0.421	0.448	0.411										
NCI-H1648					0.24	0.219	0.242	0.271	0.235								0.662	0.77	0.742
NCI-H1703	0.275	0.337	0.273	0.257						1.09	0.629	0.41	0.354	0.286					
NCI-H1792						0.714	0.702	0.746	0.673		0.863	0.918	0.847	0.823		0.943	0.742	0.781	0.79
NCI-H2342	1.04	1.04	1.01	0.972	0.535	0.665	0.564	0.624	0.524						0.599	0.756	0.842	0.75	0.655
SW 900	0.893	0.998	1.12	0.593	0.478	0.535	0.515	0.588	0.565						0.512	0.504		0.494	0.5
